Test results reported in patent US20220054494A1, “METHODS FOR TREATING BLADDER AND URETHRA DYSFUNCTION AND DISEASE” (University of Pittsburgh - Of the Commonwealth System of …, priority 2019, published 2022).
Entries after “also recorded” stand apart in the source; their conditions may differ.

Columns and labels:
Format in all cases: in vivo, rat
[1] = system: MCP-1; assay: RT-qPCR of bladder MCP-1 mRNA in CYP cystitis model; conditions: CYP (75 mg/kg i.p.) female Sprague Dawley rats; oral 8-AG 5 mg/kg/day starting one week prior to CYP
Experimental: (§1) Animals: Female Sprague Dawley rats were employed in this example (Charles River; Wilmington, Mass.). Three groups of animals were included. Group 1 received an i.p. injection of saline and was used as a control; groups 2 and 3 received an i.p. injection of cyclophosphamide (CYP, SIGMA-ALDRICH®, St Louis, Mo., day 0, 3, 6, sacrifice day 8, 75 mg/kg, i.p.) with group 3 treated with oral 8-AG (5 mg/kg/day; starting one week prior to CYP). CYP induced bladder inflammation and is a well-established pre-clinical model for BPS/IC.
RT-qPCR: Total RNA was isolated from bladders using TRIZOL® Reagent (THERMO FISHER SCIENTIFIC®; Waltham, Mass.) according to the manufacturer's instructions. The cDNA was synthesized using ISCRIPT™ cDNA synthesis kit (BIO-RAD®). qPCR analysis was performed using Power SYBR™ Green PCR Master Mix (THERMO FISHER SCIENTIFIC®) in the APPLIED BIOSYSTEMS® QUANTSTUDIO™ 3 Real-Time PCR System (THERMO FISHER SCIENTIFIC®). The primers used were as follows: for IL-1beta, 5′-[…]-3′ (forward; SEQ ID NO: 1) and 5′-[…]-3′ (reverse; SEQ ID NO: 2); for MCP-1, 5′-[…]-3′ (forward; SEQ ID NO: 3) and 5′-[…]-3′ (reverse; SEQ ID NO: 4); for β-actin, 5′-ACTCTTCCAGCCTTCCTTC-3′ (forward; SEQ ID NO: 5) and 5′-[…]-3′ (reverse; SEQ ID NO: 6). The threshold cycle (Ct) for target was subtracted from Ct for β-actin to give ΔCt. Results are expressed as 2AC.

[2] = system: CYP-treated rats; assay: Abdominal mechanical pain threshold (Von Frey) in CYP cystitis model; conditions: CYP (75 mg/kg i.p.) female Sprague Dawley rats; oral 8-AG 5 mg/kg for 1 week prior to CYP
Experimental: as §1
Determination of mechanical pain threshold: Lower abdominal pain was evaluated using a mechanical hyperalgesia and allodynia test (Larid et al., Pain, 92:335-342, 2001; Minnet et al., PLoS One, 9:e104458, 2014). Briefly, animals were placed in individual chambers with a wire mesh floor and allowed to acclimate. This Von Frey test was performed in the lower abdomen and consists of delivering a constant pre-determined force with one of a series of Von Frey monofilaments (from 0.08 to 19.6 mN; Stoelting Co., Wood Dale, Ill., USA). Filaments were applied perpendicularly with enough strength to cause the monofilament to slightly bend. Each monofilament was tested five times, 5 s interval between each application. […]

[3] = system: CYP-treated rats; assay: Voiding analysis in cyclophosphamide (CYP) cystitis model; conditions: CYP (75 mg/kg i.p.) female Sprague Dawley rats; oral 8-AG 5 mg/kg/day starting one week prior to CYP
Experimental: as §1
Voiding Analysis: Untreated, CYP-treated, and 8-AG-treated CYP rats were placed in metabolic cages (24 hr; once per week) for the duration of the study. The light cycle was from 7:00 AM to 7:00 PM, and food and water were provided ad libitum. […] Data were averaged for 24 h and analyzed for 12-h periods during the day (7:00 AM-7:00 PM) and night (7:00 PM-7:00 AM). Voiding frequency, total voided volume, and volume per void were analyzed. Voiding frequency was calculated as the number of voiding events per hour during 24 hr and during the 12-hr day and 12-hr night periods. Volume per void, which defines bladder capacity, was calculated as an average of the voids occurring during these periods.

[4] = system: urethral smooth muscle and external urethral sphincter (striated muscle); assay: Transmission electron microscopy of urethral smooth muscle and external urethral sphincter; conditions: aged rats; oral 8-AG 5 mg/kg/day, 6 weeks
From the text: Damage to the muscles or lack of hormonal stimulation are major contributing factors to urinary incontinence, which can lead to impaired bladder, emptying, urgency, and incontinence. The methods and materials used (such as for western immunoblotting and transmission electron microscopy) are the same as Example 1 with the tissues utilized for examination of muscle and mitochondrial morphology being the proximal urethral sphincter muscle and striated muscle of the external sphincter.
Transmission electron microscopy (TEM): The other half of each urinary bladder, proximal urethra, or external urethral sphincter from each group (young, aged, aged+8-AG treatment) was fixed in cold 2.5% glutaraldehyde in 0.01 M PBS. The specimens were rinsed in PBS, post-fixed in 1% osmium tetroxide with 1% potassium ferricyanide, rinsed in PBS, dehydrated through a graded series of ethanol and propylene oxide solutions, and embedded in POLY/BED® 812 (Luft formulations). Semi-thin (300 nm) sections were cut on a LEICA® Reichart Ultracut, stained with 0.5% Toluidine Blue in 1% sodium borate and examined under the light microscope. Ultrathin sections (65 nm) were stained with uranyl acetate as well as Reynold's lead citrate and examined on a JEOL 1400 transmission electron microscope with a side mount AMT 2k digital camera (Advanced Microscopy Techniques, Danvers, Mass.).

With Nc1nc2[nH]c(N)nc2c(=O)[nH]1 [8-AG, 8-Aminoguanine] the “MCP-1 mRNA expression in bladder” value [1] was “suppressed; also recorded: near the detection limit; also recorded: nearly abolished”, the “abdominal mechanical pain threshold” value [2] was “returned to near control levels” and the intercontraction interval [3] was “attenuates”. For the same molecule, the voiding frequency [3] was “attenuates”, the “external urethral sphincter (striated muscle) and mitochondrial morphology” value [4] was “restored to a younger state; also recorded: reversed to a younger state” and the “urethral smooth muscle and mitochondrial morphology” value [4] was “restored to a younger state; also recorded: reversed to a younger state”.
